Data on five substances can be found in patent publication US20260008817A1, “CYCLIC PEPTIDE OR SALT THEREOF, AND USES THEREOF” (FUJIFILM Corporation, priority 2023, published 2026).

Data set [1] concerns BaF3 cells stably expressing FGFR (bovine). In words: BaF3 cell proliferation-promoting effect, bovine FGFR. It is filed as cell-based. Conditions: viable cells at the addition concentration (0.001 to 10 nmol/L) with largest number; 2 nights. How it is done:
(§1) The FGFR phosphorylation ability of the cyclic peptide complex was evaluated using the BaF3 cell proliferation-promoting effect in which FGFR was stably expressed.
(§2) BaF3 cells stably expressing FGFR were established by introducing a vector (human: Gene Copoeia, EX-Y2820-M67, bovine: sequence of Accession No. A4IFL5 was introduced into pCDNA3.1/Hygro(+) Mammalian Expression Vector (Thermo, V87020), porcine: sequence of Accession No. A0A8D1E4H1 was introduced into pCDNA3.1/Hygro(+) Mammalian Expression Vector (Thermo, V87020), and avian: sequence of Accession No. P21804 was introduced into pCDNA3.1/Hygro(+) Mammalian Expression Vector (Thermo, V87020)) into which FGFR gene had been incorporated, into BaF3 cells using Nucleofector and performing drug selection of cells into which the FGFR gene had been introduced using hygromycin.
(§3) The evaluation of the proliferation-promoting effect of BaF3 cells in which FGFR is stably expressed was performed by the following method. […] The number of viable cells was calculated from the imaging data, and the cell proliferation-promoting effect was evaluated according to the following evaluation criteria. […]

In data set [2] the test system is BaF3 cells stably expressing FGFR (porcine). In words: BaF3 cell proliferation-promoting effect, porcine FGFR. Conditions: viable cells at the addition concentration (0.001 to 10 nmol/L) with largest number; 2 nights. Format: cell-based. How it is done:
as §1, §2, §3

Data set [3] has as its system BaF3 cells stably expressing FGFR (avian). As to the kind of experiment: BaF3 cell proliferation-promoting effect, avian FGFR. It is filed as cell-based. As to conditions: viable cells at the addition concentration (0.001 to 10 nmol/L) with largest number; 2 nights. The protocol: as §1, §2, §3
In data set [4] the test system is BaF3 cells stably expressing FGFR (human). As to the kind of experiment: BaF3 cell proliferation-promoting effect, human FGFR. Format: cell-based. As to conditions: viable cells at the addition concentration (0.001 to 10 nmol/L) with largest number; 2 nights. The protocol: as §1, §2, §3
A short description of data set [5]: Alkali treatment stability of cyclic peptide (LC). Conditions: 0.5 mol/L sodium hydroxide aqueous solution added, room temperature, 3 hours. Format: physicochemical. How it is done:
In addition, the stability of the cyclic peptide (SEQ ID NO: 335) containing a cysteine residue in the cyclized portion and the cyclic peptide (SEQ ID NO: 327) containing a homocysteine residue in the cyclized portion was compared under the following alkali treatment, which is a more severe condition.
The alkali treatment was performed by the following method. 25 μL of a 0.2 mg/mL cyclic peptide aqueous solution was prepared, 58.8 μL of a 0.5 mol/L sodium hydroxide aqueous solution was added to the aqueous solution, and the mixture was incubated at room temperature for 3 hours to obtain an aqueous solution of the cyclic peptide alkali-treated. The total area of all the peaks in LC/MS of the cyclic peptide before the alkali treatment was set to 100%, and the proportion of the total area of all the peaks in LC/MS of the aqueous solution of the cyclic peptide alkali-treated was determined to calculate the residual rate of the cyclic peptide.
The LC conditions used for the evaluation of molecular stability are the same as those in the measurement of the above-described cyclic peptide treated with a reducing agent.

Data set [6] has as its system hMSC-Human Mesenchymal Stem Cells. As to the kind of experiment: Effect of maintaining MSC undifferentiated potency (gene expression). Format: cell-based. How it is done: The effect of maintaining mesenchymal stem cell (MSC) undifferentiated potency of the cyclic peptide complex was evaluated.
MSC was prepared in the same manner as in Example 7.
The evaluation of the effect of maintaining the MSC undifferentiated potency was performed by the following method. First, a culture medium (hereinafter, referred to as a custom culture medium) in which bFGF was removed from PRIME-XV MSC Expansion XSFM (FUJIFILM Irvine Scientific, Inc., 91149) was prepared. Next, Prime-XV Human Fibronectin (FUJIFILM Irvine Scientific, Inc., 31002) was dissolved in PBS (Fujifilm Wako Pure Chemical Corporation, 164-23551), 2 μg/cm^2 of the solution was added to a 12-well plate used for proliferation, and the 12-well plate was allowed to stand at room temperature for 3 hours to coat the 12-well plate with fibronectin. Thereafter, the MSCs subjected to the subculture were peeled using Tryple Express (Thermo, 12604-013), washed once with a custom culture medium, suspended in a custom culture medium in which a cyclic peptide complex or bFGF (R&D Systems, 3718-GMP) was diluted to final concentrations of 10 nmol/L and 1 nmol/L, and seeded on a 12-well plate coated with fibronectin. In this case, conditions in which the cyclic peptide complex and bFGF were not added as a negative control were prepared. After culturing at 37° C. (5% CO2) for 2 nights, the culture medium was replaced by removing the supernatant of the culture medium and adding the same amount of a culture medium prepared to have the same composition as the removed culture medium. After further culturing at 37° C. (5% CO2) for 2 nights, RNA was extracted using an RNeasy Plus Mini Kit (Qiagen, 74136) according to the manufacturer's protocol. […] The expression level of each gene was normalized by setting the expression level of the well to which 1 nmol/L bFGF was added to 1.

Setting [7] is: 1 nmol/L bFGF versus negative control.

Positions of bridges follow the written chain, without caps; N, C: chain ends. Non-standard residues stand in square brackets, D forms with d. No end group written: not given here. COCH2 = acetyl group that carries the bridge; hCys = N[C@@H](CCS)C(=O)O

As to “343 (ACVWTFDRHAQEISQALHKVGSGSGSSGSGSSGSSACVWTFDRHAQEISQALHKV; also: cyclic peptide, ring type and places not given here) [compound 343]”, the “Evaluation result of cell proliferative properties Bovine” value in data set [1] is on record as “A (The number of viable cells is 400 cells/well or more.)”. Moreover, the “Evaluation result of cell proliferative properties Porcine” value in data set [2] is “B (The number of viable cells is 200 cells/well or more and less than 400 cells/well.)”. For the same substance, in data set [3], the “Evaluation result of cell proliferative properties Avian” value is “B (The number of viable cells is 200 cells/well or more and less than 400 cells/well.)”. For the same substance, the “Evaluation result of cell proliferative properties Human” value in data set [4] was “C (The number of viable cells is 100 cells/well or more and less than 200 cells/well.)”.
On to “344 (ACVWTFDRHAQEISQALHKVACVWTFDRHAQEISQALHKV; also: cyclic peptide, ring type and places not given here) [compound 344]”, for which the “Evaluation result of cell proliferative properties Bovine” value in data set [1] is “A (The number of viable cells is 400 cells/well or more.)”. Further, in data set [2], the “Evaluation result of cell proliferative properties Porcine” value is “B (The number of viable cells is 200 cells/well or more and less than 400 cells/well.)”. In data set [3], the “Evaluation result of cell proliferative properties Avian” value is “B (The number of viable cells is 200 cells/well or more and less than 400 cells/well.)”. Besides, the “Evaluation result of cell proliferative properties Human” value in data set [4] is “B (The number of viable cells is 200 cells/well or more and less than 400 cells/well.)”.
Take “A-(C)-VWTFDRHAQEISQALH-(K(acetyl))-VKKK (ACVWTFDRHAQEISQALHK(COCH2)VKKK; thioether 2-19 (inferred)) [SEQ ID NO: 335]”: the “residual rate of the cyclic peptide” value in data set [5] is 15%.
Consider “A-(Hcy)-VWTFDRHAQEISQALH-(K(acetyl))-VKKK (A[hCys]VWTFDRHAQEISQALHK(COCH2)VKKK; thioether 2-19) [SEQ ID NO: 327]”, for which the “residual rate of the cyclic peptide” value in data set [5] turned out to be 28%.
Take “bFGF: basic fibroblast growth factor (R&D Systems, 3718-GMP), growth factor used as comparison”: in data set [6] (setting [7]), the “expression level of Nanog” value is given as “did not change substantially” and the “expression level of Oct4” value is reported as “did not change substantially”. Also, in data set [6] (cyclic peptide complex 10 nmol/L, bFGF 1 nmol/L, normalized to 1 nmol/L bFGF = 1, FIG. 4), the “expression level of Sox2” value is “changed”.
